Data from patent US20250051391A1, “PEPTIDE INHIBITORS AND METHODS FOR INHIBITING PROTEIN AGGREGATION IN NEURONS AND NEURODEGENERATIVE DISEASES” (THE GOVERNING COUNCIL OF THE UNIVERSITY OF TORONTO, priority 2021, published 2025).

What was measured:
[1] = tested on: a-syn oligomers in HEK293 cells; assay: Oligomers screen (split YFP-a-syn protein fragment complementation, FACS); type: cell-based, human; settings: for Reads GFP High: FACS fraction GFP High; for Reads GFP Inter: FACS fraction GFP Inter; for Reads GFP Neg: FACS fraction GFP Neg
From the text: To detect a-syn oligomers, a protein fragment complementation assay (PCA) of a-syn oligomerization in HEK293 cells (14) was used. In this assay, human A53T a-syn was fused to either the C- or N-terminal half of yellow fluorescent protein (YFP). No fluorescence is detectable while a-syn exists in monomers but, when a-syn oligomerizes, the two halves of YFP come in close enough proximity to form a functional, spontaneously fluorescent protein. […] By using fluorescence activated cell sorting (FACS), cells expressing Flag-tagged peptides that directly or indirectly interfered with a-syn oligomer formation were isolated and then the peptides were identified from genomic DNA (FIG. 1A). The screens yielded 10 hits (Table 1). The hit with the most reads (i.e., the most abundant) was the same peptide in all screens: IPIQLKA (SEQ ID NO: 1) (PDpep1) (Table 2). […] Lead peptide targets CHMP2B, a member of ESCRT-III
(§1) PCR primers that included the Illumina adaptor sequences were used to amplify peptide coding sequences recovered from selection and cell sorting. Results were demultiplexed, and peptide counts were tallied. After demultiplexing, only reads with an average quality Phred score of >30 were selected, and frequencies were calculated. Finally, the reads were then normalized to the total number of peptides read for that sample population, and a scalar factor was applied. In parallel, ˜25 individual colonies were Sanger sequenced to compare to the NGS data.
(§2) Lentiviruses were made in a 15 cm dish format by transfecting packaging cells (293T) with a three-plasmid system as previously described. Viral transduction of HEK293T cells, tet-off split luciferase a-syn cells, tet-off parent cells, and SH-SY5Y cells were performed with a multiplicity of infection of 0.3 (MOI=0.3). Infected cells were selected in puromycin-containing medium to eliminate uninfected cells and three aliquots of cells were collected for sampling of the initial (TO) cell population. Cells were treated with MG132 at concentrations of 0 μM, 10 μM, 25 μM or 50 μM. For the cell viability screen, surviving cells were collected and gDNA was extracted for identification of peptide inhibitors of cell toxicity. For the inhibition of a-syn aggregation screen, split YFP-a-syn constructs were transfected following stable expression of the peptides. Cells were sorted based on their GFP fluorescence intensities with a FACSVantage SE cell sorter (BD Bioscience).
Cells were harvested by trypsin treatment and centrifuged at 500×g for 5 minutes. The pellet was resuspended in ice-cold PBS and centrifuged again. The pellet was then resuspended at a concentration of 4×10^6 cells/ml in the sorting buffer, which is PBS containing 100 Kunitz Dnase l/ml, 10 μg/ml propidium iodide (Sigma) and 2% FBS. The sorting solution was also supplemented with either 10 μM forskolin, 100 μM 5,6-Dichlorobenzimidazole riboside (DRB, Sigma), 10 μM forskolin (Sigma) and 100 μM DRB or DMSO, as a control. The cells were then sent through a 40 μm filter to remove large clumps and loaded into either a FACScan Flow Cytometer (BD Bioscience) for cell analysis or a FACSVantage SE cell sorter (BD Bioscience) for cell sorting. The cells with positive propidium iodide staining (i.e., dead cells) were first eliminated from the analysis or sorting pool. For cell sorting, the desired population, either the most or least bright EGFP-positive cells, according to the purpose of the experiments (see Results), was sorted into either 15 ml conical tubes or 96-well plates, which both contained complete DMEM culture media.
Genomic DNA (gDNA) from peptide expressing cells at different time-points was extracted using QIAamp DNA Blood Mini Kit. PCR amplifications of peptides from gDNA in parallel with the lentiviral plasmid library (naïve library) were performed using indexed Illumina PCR primers to incorporate both the Illumina adapter sequences and indexing sequences. […]

[2] = tested on: HEK293 cells overexpressing human a-syn (WT); assay: Cytotoxicity screen of lentiviral 7-mer peptide library, Alpha Syn (WT) cells under MG132; type: cell-based; settings: for Reads 0 uM MG132 / Reads 10 UM MG132 / Reads 25 UM MG132: normalized Illumina peptide counts
From the text: (§3) A screening system to discover candidate peptides to perturb endogenous PPIs based on libraries of short linear interaction motifs that mediate a large fraction (˜30%) of human PPIs (10-12) was recently developed. Here, a lentiviral library of 50,549 7-mer peptide motifs (13) on a green fluorescent protein (GFP) scaffold (FIG. 1A) was used. Cells in a pooled format were infected and the amino acid sequence of each peptide served as its own barcode. By using a low multiplicity of infection followed by puromycin selection, each infected cell expressed one unique GFP-peptide. Peptides that reduced a-syn-mediated cytotoxicity or a-syn oligomers in parallel (FIG. 1A), were screened for.
(§4) To cause cytotoxicity relevant to PD, proteostatic stress in HEK293 cells was induced by inhibiting the proteasome with MG132 and inducing the overexpression of human a-syn (WT) from idiopathic PD in one screen and the more toxic A53T mutant from familial PD in a second screen. The combination of a-syn overexpression and pharmacological proteasome inhibition led to death of most cells, with only those that expressed a protective peptide surviving. By extracting genomic DNA from the surviving cells and amplifying the peptide coding sequences, the protective peptides (FIG. 1A) were identified.
as §1, §2
(§5) Genomic DNA (gDNA) from peptide expressing cells at different time-points was extracted using QIAamp DNA Blood Mini Kit. PCR amplifications of peptides from gDNA in parallel with the lentiviral plasmid library (naïve library) were performed using indexed Illumina PCR primers to incorporate both the Illumina adapter sequences and indexing sequences. Each 50 μl reaction contained 3.2 μg of template, 2×PCR buffer, 2× enhancer solution, 300 μM each dNTP, 900 nM each of Adapter A (5′-[…]-[…]-3′) (SEQ ID NO: 42) and Adapter B (5′-[…]-[…]-3′) (SEQ ID NO: 43), 1 mM MgSO4, 3.75 units of Platinum Pfx polymerase, and water to 50 μl. The PCR reaction was performed by denaturing at 94° C. for 5 minutes, followed by cycling (94° C. for 30 seconds, 65° C. for 30 seconds, 68° C. for 30 seconds)×28 cycles, 68° C. for 5 minutes, then cooling to 4° C. The resulting 244 bp product was purified by electrophoresis in 2% agarose followed by gel extraction. Peptide libraries were quantified using Quant-It assay (Invitrogen) and pooled. […]

[3] = tested on: HEK293 cells overexpressing A53T a-syn; assay: Cytotoxicity screen of lentiviral 7-mer peptide library, Alpha syn A53T cells under MG132; type: cell-based, human; settings: for Reads 0 uM MG132 / Reads 10 UM MG132 / Reads 25 UM MG132 / Reads 50 UM MG132: normalized Illumina peptide counts
From the text: as §3, §4, §1, §2, §5

| Substance | Reads Ratio [1] | Reads GFP High [1] | Reads GFP Inter [1] | Reads GFP Neg [1] | Slope Norm Reads [2] | Reads 0 uM MG132 [2] | Reads 10 UM MG132 [2] | Reads 25 UM MG132 [2] | Slope Norm Reads [3] | Reads 0 uM MG132 [3] | Reads 10 UM MG132 [3] | Reads 25 UM MG132 [3] | Reads 50 UM MG132 [3] |
| --- | --- | --- | --- | --- | --- | --- | --- | --- | --- | --- | --- | --- | --- |
| ECHTKIR [7-mer library hit, oligomers screen] | 39.21 | 1 | 0 | 76 | – | – | – | – | – | – | – | – | – |
| LKRDQPV [7-mer library hit, oligomers screen] | 30.30 | 3 | 0 | 118 | – | – | – | – | – | – | – | – | – |
| LPASMPC [7-mer library hit, Alpha Syn screen] | – | – | – | – | 0.09 | 2 | 16 | 27 | – | – | – | – | – |
| EDVNKCV [7-mer library hit, A53T screen] | – | – | – | – | – | – | – | – | 0.68 | 6 | 6 | 13 | 233 |
| CMVHSAG [7-mer library hit, Alpha Syn screen] | – | – | – | – | 0.08 | 4 | 14 | 33 | – | – | – | – | – |
| RAPSCHL [7-mer library hit, Alpha Syn screen] | – | – | – | – | 0.15 | 1 | 13 | 33 | – | – | – | – | – |
| DWLMVNL [7-mer library hit, Alpha Syn screen] | – | – | – | – | 0.13 | 1 | 13 | 29 | – | – | – | – | – |
| LQVGVAV [7-mer library hit, Alpha Syn screen] | – | – | – | – | 0.09 | 1 | 25 | 23 | – | – | – | – | – |
| CKYRSVL [7-mer library hit, A53T screen] | – | – | – | – | – | – | – | – | 1.30 | 5 | 7 | 11 | 438 |
| GAAAGGT [7-mer library hit, Alpha Syn screen] | – | – | – | – | 0.06 | 1 | 10 | 17 | – | – | – | – | – |
| CFLFQIQ [7-mer library hit, oligomers screen] | 45.32 | 1 | 0 | 88 | – | – | – | – | – | – | – | – | – |
| GWTTVRR [7-mer library hit, A53T screen] | – | – | – | – | – | – | – | – | 0.94 | 15 | 1 | 29 | 322 |
| VYLDILG [7-mer library hit, oligomers screen] | 30.55 | 1 | 0 | 59 | – | – | – | – | – | – | – | – | – |
| MQMKLSQ [7-mer library hit, oligomers screen] | 36.15 | 1 | 0 | 70 | – | – | – | – | – | – | – | – | – |
| QSVVTAP [7-mer library hit, A53T screen] | – | – | – | – | – | – | – | – | 1.38 | 8 | 6 | 37 | 465 |
| LPSKIYK [7-mer library hit, oligomers screen] | 29.53 | 1 | 0 | 57 | – | – | – | – | – | – | – | – | – |
| QAELSNS [7-mer library hit, A53T screen] | – | – | – | – | – | – | – | – | 0.69 | 6 | 8 | 10 | 235 |
| PLPTGMG [7-mer library hit, Alpha Syn screen] | – | – | – | – | 0.08 | 1 | 3 | 20 | – | – | – | – | – |
| WPRYPHI [7-mer library hit, oligomers screen] | 47.36 | 1 | 0 | 92 | – | – | – | – | – | – | – | – | – |
| AAYNLCA [7-mer library hit, Alpha Syn screen] | – | – | – | – | 0.07 | 1 | 14 | 19 | – | – | – | – | – |
| QSPSSAW [7-mer library hit, A53T screen] | – | – | – | – | – | – | – | – | 0.82 | 9 | 45 | 59 | 284 |
| TQKRELT [7-mer library hit, oligomers screen] | 35.64 | 1 | 0 | 69 | – | – | – | – | – | – | – | – | – |
| LSGECVP [7-mer library hit, Alpha Syn screen] | – | – | – | – | 0.07 | 3 | 28 | 28 | – | – | – | – | – |
| QSVLQQV [7-mer library hit, A53T screen] | – | – | – | – | – | – | – | – | 0.82 | 13 | 2 | 12 | 282 |
| QVSVAQQ [7-mer library hit, A53T screen] | – | – | – | – | – | – | – | – | 0.69 | 45 | 13 | 120 | 246 |
| PAMQIDG [7-mer library hit, A53T screen] | – | – | – | – | – | – | – | – | 0.96 | 32 | 20 | 53 | 337 |
| NNQYSFV [7-mer library hit, oligomers screen] | 30.04 | 1 | 0 | 58 | – | – | – | – | – | – | – | – | – |
